Data as given in patent US8133909B2 (Hoffmann-La Roche Inc., priority 2008, dated 2012).
Structures can show the parent of a compound that is named as a salt.

Target: T1, human orexin-2 (hOX2) receptors (Homo sapiens, UniProt O43614)
T1 construct: expressed in transfected cells
T1 sequence (O43614 1-444): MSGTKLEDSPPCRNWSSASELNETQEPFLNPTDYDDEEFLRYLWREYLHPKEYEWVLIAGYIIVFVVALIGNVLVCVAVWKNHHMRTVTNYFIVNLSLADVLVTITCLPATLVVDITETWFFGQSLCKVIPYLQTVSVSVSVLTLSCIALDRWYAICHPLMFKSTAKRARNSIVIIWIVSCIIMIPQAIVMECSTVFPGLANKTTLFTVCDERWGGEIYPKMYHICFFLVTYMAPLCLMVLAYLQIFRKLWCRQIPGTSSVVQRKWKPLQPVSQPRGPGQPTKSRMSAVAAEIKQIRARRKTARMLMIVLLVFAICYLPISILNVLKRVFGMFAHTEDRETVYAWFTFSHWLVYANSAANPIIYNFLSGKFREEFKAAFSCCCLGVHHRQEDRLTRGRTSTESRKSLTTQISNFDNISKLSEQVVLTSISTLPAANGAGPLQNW
Assay: Intracellular Ca2+ mobilization assay (FLIPR), antagonism of orexin-A
Type: cell-based
Conditions: CHO(dHFr-) cells stably expressing hOX2; orexin-A at EC80 as agonist; antagonist applied 25 min before; Kb=IC50/(1+[A]/EC50); read-out: Kb (μM) OX2R (human)
Procedure: Intracellular Ca^2+ Mobilization Assay
The Chinese Hamster Ovary (dHFr—) mutant cell line stably expressing human orexin-1 (hOX1) or human orexin-2 (hOX2) receptors were maintained in Dulbecco's Modified Eagle Medium (1X) with GlutaMax™ 1, 4500 mg/L D-Glucose and Sodium Pyruvate (Catalog No. 31966-021, Invitrogen, Carlsbad, Calif.), 5% dialyzed fetal calf serum (Catalog No. 26400-044), 100 μg/ml penicillin and 100 μg/ml streptomycin. The cells were seeded at 5×10^4 cells/well in the poly-D-lysine treated, 96-well, black/clear-bottomed plates (Catalog No. BD356640, BD Biosciences, Palo Alto, Calif.). 24 h later, the cells were loaded for 1 h at 37° C. with 4 μM Flou-4 acetoxymethyl ester (Catalog No. F-14202, Molecular Probes, Eugene, Oreg.) in FLIPR buffer (1×HBSS, 20 mM HEPES, 2.5 mM Probenecid). Hanks' Balanced Salt Solution (HBSS) (10×) (catalog No. 14065-049) and HEPES (1M) (catalog No. 15630-056) were purchased from Invitrogen, Carlsbad, Calif. Probenecid (250 mM) (catalog No. P8761) was from Sigma, Buchs, Switzerland. The cells were washed five times with FLIPR buffer to remove excess dye and intracellular calcium mobilization, [Ca^2+]i were measured using a Fluorometric Imaging Plate Reader (FLIPR-96, Molecular Devices, Menlo Park, Calif.) as described previously (Malherbe et al., Mol. Pharmacol., 64, 823-832, 2003). Orexin A (catalog No. 1455, Toris Cookson Ltd, Bristol, UK) was used as agonist. Orexin A (50 mM stock solution in DMSO) was diluted in FLIPR buffer +0.1% BSA. The EC50 and EC80 values of orexin-A were measured daily from standard agonist concentration-response curves in CHO(dHFr—)—OX1R and —OX2R cell lines. All compounds were dissolved in 100% DMSO. Inhibition curves were determined by addition of 11 concentrations (0.0001-10 μM) of inhibitory compounds and using EC80 value of orexin-A as agonist (a concentration which gave 80% of max agonist response, determined daily). The antagonists were applied 25 min (incubation at 37° C.) before the application of the agonist. Responses were measured as peak increase in fluorescence minus basal, normalized to the maximal stimulatory effect induced by EC80 value of orexin-A or orexin- B. Inhibition curves were fitted according to the Hill equation: y=100/(1+(x/IC50)^nH), where nH=slope factor using Excel-fit 4 software (Microsoft). Kb values were calculated according to the following equation Kb=IC50/(1+[A]/EC50) where A is the concentration of agonist added which is very close to agonist EC80 value, and IC50 and EC50 values were derived from the antagonist inhibition and orexin-A or B agonist curves, respectively.

## Cc1ccc(N(CCc2ccc(C(F)(F)F)nc2)C(=O)[C@@H](N)c2ccccc2)cc1C [Example 1, (S)-2-Amino-N-(3,4-dimethyl-phenyl)-2-phenyl-N-[2-(6-trifluoromethyl-pyridin-3-yl)-ethyl]-acetamide]
  Kb: 0.0007 µM

## Cc1ccc(N(CCc2ccc(C(F)(F)F)nc2)C(=O)[C@@H](O)c2ccccc2)cc1C [Example 2, (S)—N-(3,4-Dimethyl-phenyl)-2-hydroxy-2-phenyl-N-[2-(6-trifluoromethyl-pyridin-3-yl)-ethyl]-acetamide]
  Kb: 0.0025 µM

## Cc1ccc(N(CCc2ccc(C(F)(F)F)nc2)C(=O)[C@H](O)c2ccccc2)cc1C [Example 3, (R)—N-(3,4-Dimethyl-phenyl)-2-hydroxy-2-phenyl-N-[2-(6-trifluoromethyl-pyridin-3-yl)-ethyl]-acetamide]
  Kb: 0.0159 µM

## COc1ccc(N(CCc2ccc(C(F)(F)F)nc2)C(=O)[C@@H](NC(=O)[C@@H](N)c2ccccc2)c2ccccc2)cc1OC [Example 4, (S)-2-((S)-2-Amino-2-phenyl-acetylamino)-N-(3,4-dimethoxy-phenyl)-2-phenyl-N-[2(6-trifluoromethyl-pyridin-3-yl)-ethyl]-acetamide]
  Kb: 0.0017 µM

## COc1ccc(N(CCc2ccc(C(F)(F)F)nc2)C(=O)[C@@H](N)c2ccccc2)cc1OC [Example 5, (S)-2-Amino-N-(3,4-dimethoxy-phenyl)-2-phenyl-N-[2-(6-trifluoromethyl-pyridin-3-yl)-ethyl]-acetamide]
  Kb: 0.0005 µM

## Cc1ccc(N(CCc2ccc(C(F)(F)F)nc2)C(=O)[C@@H](O)c2ccc(F)cc2)cc1C [Example 7, (S)—N-(3,4-Dimethyl-phenyl)-2-(4-fluoro-phenyl)-2-hydroxy-N-[2-(6-trifluoromethyl-pyridin-3-yl)-ethyl]-acetamide]
  Kb: 0.0005 µM

## Cc1ccc(N(CCc2ccc(C(F)(F)F)nc2)C(=O)[C@@H](NC2(CN)COC2)c2ccccc2)cc1C [Example 8, (S)-2-(3-Aminomethyl-oxetan-3-ylamino)-N-(3,4-dimethyl-phenyl)-2-phenyl-N-[2-(6-trifluoromethyl-pyridin-3-yl)-ethyl]acetamide]
  Kb: 0.0263 µM

## N[C@H](C(=O)N(CCc1ccc(C(F)(F)F)nc1)c1ccc2c(c1)CCCC2)c1ccccc1 [Example 9, (S)-2-Amino-2-phenyl-N-(5,6,7,8-tetrahydro-naphthalen-2-yl)-N-[2-(6-trifluoromethyl-pyridin-3-yl)-ethyl]-acetamide]
  Kb: 0.0006 µM

## Cc1ccc(N(CCc2ccc(C(F)(F)F)nc2)C(=O)[C@@H](N)c2ccc(F)cc2)cc1C [Example 10, (S)-2-Amino-N-(3,4-dimethyl-phenyl)-2-(4-fluoro-phenyl)-N-[2-(6-trifluoromethyl-pyridin-3-yl)-ethyl]-acetamide]
  Kb: 0.0014 µM

## O=C([C@@H](O)c1ccccc1)N(CCc1ccc(C(F)(F)F)nc1)c1ccc2c(c1)CCCC2 [Example 12, (S)-2-Hydroxy-2-phenyl-N-(5,6,7,8-tetrahydro-naphthalen-2-yl)-N-[2-(6-trifluoromethyl-pyridin-3-yl)-ethyl]-acetamide]
  Kb: 0.0015 µM

## Cc1ccc(N(CCc2ccc(C(F)(F)F)nc2)C(=O)[C@@H](O)c2ccccc2)cc1 [Example 15, (S)-2-Hydroxy-2-phenyl-N-p-tolyl-N-[2-(6-trifluoromethyl-pyridin-3-yl)-ethyl]-acetamide]
  Kb: 0.0241 µM

## Cc1ccc(N(CCc2ccc(C(F)(F)F)nc2)C(=O)Cc2ccccc2)cc1C [Example 17, N-(3,4-Dimethyl-phenyl)-2-phenyl-N-[2-(6-trifluoromethyl-pyridin-3-yl)-ethyl]-acetamide]
  Kb: 0.0362 µM

## COc1cc(N(CCc2ccc(C(F)(F)F)nc2)C(=O)[C@@H](O)c2ccccc2)ccc1C [Example 19, (S)-2-Hydroxy-N-(3-methoxy-4-methyl-phenyl)-2-phenyl-N-[2-(6-trifluoromethyl-pyridin-3-yl)-ethyl]-acetamide]
  Kb: 0.0109 µM

## Cc1ccc(N(CCc2ccc(C(F)(F)F)nc2)C(=O)C(=O)c2ccccc2)cc1C [Example 20, N-(3,4-Dimethyl-phenyl)-2-oxo-2-phenyl-N-[2-(6-trifluoromethyl-pyridin-3-yl)-ethyl]-acetamide]
  Kb: 0.0916 µM

## Cc1ccc(CCN(C(=O)[C@@H](N)c2ccccc2)c2ccc(C)c(C)c2)nc1 [Example 21, (S)-2-Amino-N-(3,4-dimethyl-phenyl)-N-[2-(5-methyl-pyridin-2-yl)-ethyl]-2-phenyl-acetamide hydrochloride]
  Kb: 0.0047 µM

## Cc1ccc(N(CCc2ccc(C(F)(F)F)nc2)C(=O)[C@@H](C)c2ccccc2)cc1C [Example 24, (S)—N-(3,4-Dimethyl-phenyl)-2-phenyl-N-[2-(6-trifluoromethyl-pyridin-3-yl)-ethyl]-propionamide]
  Kb: 0.0839 µM

## Cc1ccc(N(CCc2ccc(C(F)(F)F)cn2)C(=O)[C@@H](N)c2ccccc2)cc1C [Example 25, (S)-2-Amino-N-(3,4-dimethyl-phenyl)-2-phenyl-N-[2-(5-trifluoromethyl-pyridin-2-yl)-ethyl]-acetamide hydrochloride]
  Kb: 0.0008 µM

## Cc1ccc(N(CCc2ccc(C(F)(F)F)cn2)C(=O)[C@@H](O)c2ccccc2)cc1C [Example 26, (S)—N-(3,4-Dimethyl-phenyl)-2-hydroxy-2-phenyl-N-[2-(5-trifluoromethyl-pyridin-2-yl)-ethyl]-acetamide]
  Kb: 0.0038 µM

## CCn1nc(C)c2cc(N(CCc3ccc(C(F)(F)F)nc3)C(=O)[C@@H](O)c3ccccc3)ccc21 [Example 48, (S)—N-(1-Ethyl-3-methyl-1H-indazol-5-yl)-2-hydroxy-2-phenyl-N-[2-(6-trifluoromethyl-pyridin-3-yl)-ethyl]-acetamide]
  Kb: 0.07 µM

## O=C([C@@H](O)c1ccccc1)N(CCc1ccc(C(F)(F)F)nc1)c1cnc2ccccc2c1 [Example 49]
  Kb: 0.0361 µM

## O=C([C@@H](O)c1ccccc1)N(CCc1ccc(C(F)(F)F)nc1)c1ccc2c(c1)OCCO2 [Example 55, (S)—N-(2,3-Dihydro-benzo[1,4]dioxin-6-yl)-2-hydroxy-2-phenyl-N-[2-(6-trifluoromethyl-pyridin-3-yl)-ethyl]-acetamide]
  Kb: 0.0142 µM

## COc1cccc(N(CCc2ccc(C(F)(F)F)nc2)C(=O)[C@@H](O)c2ccccc2)c1 [Example 56, (S)-2-Hydroxy-N-(3-methoxy-phenyl)-2-phenyl-N-[2-(6-trifluoromethyl-pyridin-3-yl)-ethyl]-acetamide]
  Kb: 0.0176 µM

## Cc1ccc(N(CCc2ccc(C(F)(F)F)nc2)C(=O)[C@@H](NC2COC2)c2ccccc2)cc1C [Example 57, (S)—N-(3,4-Dimethyl-phenyl)-2-(oxetan-3-ylamino)-2-phenyl-N-[2-(6-trifluoromethyl-pyridin-3-yl)-ethyl]-acetamide]
  Kb: 0.0016 µM

## O=C([C@@H](O)c1ccc(F)cc1)N(CCc1ccc(C(F)(F)F)nc1)c1ccc2c(c1)CCCC2 [Example 60, (S)-2-(4-Fluoro-phenyl)-2-hydroxy-N-(5,6,7,8-tetrahydro-naphthalen-2-yl)-N-[2-(6-trifluoromethyl-pyridin-3-yl)-ethyl]-acetamide]
  Kb: 0.0053 µM

## COc1cc(N(CCc2ccc(C(F)(F)F)nc2)C(=O)[C@@H](O)c2ccc(F)cc2)ccc1C [Example 61, (S)-2-(4-Fluoro-phenyl)-2-hydroxy-N-(3-methoxy-4-methyl-phenyl)-N-[2-(6-trifluoromethyl-pyridin-3-yl)-ethyl]-acetamide]
  Kb: 0.0026 µM

## O=C([C@@H](O)c1ccccc1)N(CCc1ccc(C(F)(F)F)nc1)c1ccc2c(c1)CCCO2 [Example 62]
  Kb: 0.011 µM
